Laboratory results published in the NIST ThermoML archive (doi:10.1016/j.jct.2016.12.033).
Numbers after ± are expanded uncertainties.

How the values were obtained:
[1] = 101.3 kPa, Liquid; for viscosity: Capillary tube (Ostwald / Ubbelohde) method; for mass density: Pycnometric method
[2] = mn = molality of the nth substance listed, in mol/kg; settings: 101.3 kPa, Liquid, m2 = 0; for viscosity: Capillary tube (Ostwald / Ubbelohde) method; for mass density: Pycnometric method

| SMILES | viscosity ([1]; 275.15 K) | mass density ([1]; 275.15 K) | viscosity ([1]; 277.15 K) | mass density ([1]; 277.15 K) | viscosity ([1]; 279.15 K) | mass density ([1]; 279.15 K) | viscosity ([2]; 275.15 K) | mass density ([2]; 275.15 K) | viscosity ([2]; 277.15 K) | mass density ([2]; 277.15 K) | viscosity ([2]; 279.15 K) | mass density ([2]; 279.15 K) |
| --- | --- | --- | --- | --- | --- | --- | --- | --- | --- | --- | --- | --- |
| O [water] | 1.674 ± 0.035 mPa·s | 999.94 ± 0.28 kg/m3 | 1.567 ± 0.032 mPa·s | 999.97 ± 0.28 kg/m3 | 1.472 ± 0.03 mPa·s | 999.94 ± 0.28 kg/m3 | – | – | – | – | – | – |
| O [water] + Cc1ncc(CO)c(CO)c1O.Cl | – | – | – | – | – | – | 1.674 ± 0.035 mPa·s | 999.94 ± 0.28 kg/m3 | 1.567 ± 0.032 mPa·s | 999.97 ± 0.28 kg/m3 | 1.472 ± 0.03 mPa·s | 999.94 ± 0.27 kg/m3 |
| O [water] + Cc1ncc(C[n+]2csc(CCO)c2C)c(N)n1.Cl.[Cl-] | – | – | – | – | – | – | 1.674 ± 0.035 mPa·s | 999.94 ± 0.28 kg/m3 | 1.567 ± 0.032 mPa·s | 999.97 ± 0.28 kg/m3 | 1.472 ± 0.03 mPa·s | 999.94 ± 0.28 kg/m3 |
| O [water] + O=C1O[C@H]([C@@H](O)CO)C([O-])=C1O.[Na+] | – | – | – | – | – | – | 1.674 ± 0.035 mPa·s | 999.94 ± 0.29 kg/m3 | 1.567 ± 0.032 mPa·s | 999.97 ± 0.28 kg/m3 | 1.472 ± 0.03 mPa·s | 999.94 ± 0.28 kg/m3 |
